# Assay results from patent US20260144799A1, “COMPOSITION COMPRISING A FIRST RAS INHIBITOR, SECOND RAS INHIBITOR AND A SHP2 INHIBITOR FOR USE IN THE TREATMENT OF CANCER” (Revolution Medicines, Inc., priority 2022, published 2026).
# Legend:
# [1] = tested on: eLL2 KRAS^WT/G12C NRAS^−/− A2 model; assay: Tumor cell growth in vivo, murine syngeneic eLL2 KRAS^WT/G12C NRAS^−/− A2 model; set-up: species or system C57BL/6J mice; settings: on treatment; RMC-4550 30 mg/kg po qd
# Experimental: Methods: Effects of Compound A and combination therapy with Compound B and/or RMC-4550 (a SHP2 inhibitor) on tumor cell growth in vivo were evaluated in the murine syngeneic eLL2 KRAS^WT/G12C NRAS^−/− A2 model using female C57BL/6J mice (6-8 weeks old). Mice were implanted with tumor cells (3×10^6 cells/mouse) in DMEM medium without supplements subcutaneously in the upper right flank. Once tumors reached an average size of ˜130 mm^3, mice were randomized to treatment groups to start the administration of test articles or vehicle. Compound A was administered by oral gavage once daily (po qd) at 200 mg/kg, compound B was administered by oral gavage once daily (po qd) at 25 mg/kg and RMC-4550 was administered by oral gavage once daily (po qd) at 30 mg/kg. In the dual combinations the compounds were administered at the same dose as the monotherapies qd. In the triple combination Compound A was dosed at 200 mg/kg po qd, Compound B was dosed at 50 mg/kg po q2d and RMC-4550 was dosed at 20 mg/kg po qd. The administration of Compound A, Compound B and RMC-4550 was ceased after 60 days of treatment in the monotherapy and combination groups. Body weight and tumor volume (using calipers) was measured twice weekly until study endpoints.
# [2] = tested on: eLL2 KRAS^WT/G12C NRAS^−/− A2 tumors; assay: Tumor immune profile by flow cytometry in response to therapy; type: in vivo, murine; settings: 4 days of treatment, tumors collected 24 hours post last dose, 3 animals/group
# Experimental: Methods: The tumor immune profile of the murine syngeneic eLL2 KRAS^WT/G12C NRAS^−/− A2 tumors (3 animals/group) was evaluated in response to therapy by flow cytometry. The mono- and combination therapies were administered for 4 days at the concentrations described in FIG. 1 A-C. 24 hours post last dose the tumors were collected, tumor tissue was minced, processed with the Dri Tumor & Tissue Dissociation Reagent from BD Biosciences, and homogenized with the gentleMACS™ Dissociator. The cell suspension was incubated at 4° C. for 30 minutes with Mouse BD Fc Block (Clone 2.4G2 from BD Pharmingen), 10 minutes with Blue Dead Cell Stain Kit (from Invitrogen) and 30 min in cell staining buffer. […]
smiles,measurement,setting,value
Cc1nc(N2CCC3(CC2)CO[C@@H](C)[C@H]3N)c(CO)nc1-c1cccc(Cl)c1Cl [RMC-4550],effect on tumor growth (in words),[1],tumor growth inhibition
same,Ly6C+ myeloid derived suppressor cells in tumor,[2],only a slight decrease
